According to patent US8987314B2, “Amide, urea or sulfone amide linked benzothiazole inhibitors of endothelial lipase” (Bristol-Myers Squibb Company, priority 2012, dated 2015):
pIC50: −log10 of the molar value. Like-named read-outs stand apart in the source and are kept apart here.

Legend:
Endothelial lipase (EL) = Endothelial lipase (EL) (Homo sapiens (Human), UniProt Q9Y5X9); test: EL assay: endothelial lipase activity with fluorescent substrate A10070 in DMPG vesicles; assay type: biochemical
Sequence of Endothelial lipase (EL) (Q9Y5X9 21-500): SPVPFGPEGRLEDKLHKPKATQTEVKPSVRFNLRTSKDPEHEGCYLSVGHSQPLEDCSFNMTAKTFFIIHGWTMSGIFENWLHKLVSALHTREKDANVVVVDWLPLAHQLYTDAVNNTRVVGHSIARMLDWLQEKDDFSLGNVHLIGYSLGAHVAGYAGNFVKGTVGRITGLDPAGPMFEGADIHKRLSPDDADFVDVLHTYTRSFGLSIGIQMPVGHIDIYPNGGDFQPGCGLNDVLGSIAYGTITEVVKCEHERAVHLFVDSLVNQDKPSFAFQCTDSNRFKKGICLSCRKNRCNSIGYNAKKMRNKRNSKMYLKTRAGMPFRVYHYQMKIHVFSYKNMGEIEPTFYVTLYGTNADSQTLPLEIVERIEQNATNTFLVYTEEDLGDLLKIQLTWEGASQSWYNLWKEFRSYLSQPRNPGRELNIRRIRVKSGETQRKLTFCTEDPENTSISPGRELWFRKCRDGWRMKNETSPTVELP
Method in brief: (§1)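 Substrate A10070 sits in sonicated DMPG vesicles at 0.11 mole fraction. Lipase and compound preincubated 30 min, 37° C, in HEPES pH 8.0 buffer with CaCl2.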

hepatic lipase (HL) = hepatic lipase (HL) (Homo sapiens (Human), UniProt P11150); test: HL assay: hepatic lipase activity with fluorescent substrate A10070 in DMPG vesicles; assay type: biochemical
Sequence of hepatic lipase (HL) (P11150 23-499, species assumed): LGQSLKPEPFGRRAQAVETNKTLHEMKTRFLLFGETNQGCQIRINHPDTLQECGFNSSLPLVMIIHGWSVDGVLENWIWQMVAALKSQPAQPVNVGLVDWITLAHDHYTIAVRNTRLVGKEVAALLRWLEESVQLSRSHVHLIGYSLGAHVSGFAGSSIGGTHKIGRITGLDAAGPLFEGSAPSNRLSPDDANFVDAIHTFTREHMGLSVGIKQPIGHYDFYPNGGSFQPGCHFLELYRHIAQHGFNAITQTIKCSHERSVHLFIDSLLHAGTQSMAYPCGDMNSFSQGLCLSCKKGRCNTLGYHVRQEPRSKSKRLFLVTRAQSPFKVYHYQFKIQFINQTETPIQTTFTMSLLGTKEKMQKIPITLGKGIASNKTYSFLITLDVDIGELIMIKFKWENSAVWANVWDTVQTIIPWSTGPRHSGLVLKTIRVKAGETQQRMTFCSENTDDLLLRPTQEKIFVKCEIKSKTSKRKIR
Method in brief: as §1

[1] = EL from conditioned media of HT-1080 cells, 30 min incubation with compound at 37° C., A10070/DMPG vesicles
[2] = HL partially purified from conditioned media of COS cells, 30 min incubation with compound at 37° C., A10070/DMPG vesicles

| pIC50 (Endothelial lipase (EL); [1]) | pIC50 (hepatic lipase (HL); [2]) | pIC50 (Endothelial lipase (EL)) | pIC50 (hepatic lipase (HL)) | SMILES |
| --- | --- | --- | --- | --- |
| – | – | > 8.00 | 7.66 | NCCS(=O)(=O)C(C(=O)NCCS(N)(=O)=O)c1nc2ccc(-c3ccc(C(=O)N4CCOCC4)cc3)cc2s1 (stereo not drawn) [Example B159] |
| > 8.00 | 7.89 | – | – | CS(=O)(=O)C(C(=O)NCCS(N)(=O)=O)c1nc2ccc(-c3ccc(C(=O)N4CC(F)(F)C4)cc3)cc2s1 (stereo not drawn) [Example B166, 2-(6-(4-(3,3-Difluoroazetidine-1-carbonyl)phenyl)benzo[d]thiazol-2-yl)-2-(methylsulfonyl)-N-(2-sulfamoylethyl)acetamide] |
| – | – | > 8.00 | 7.10 | COCCS(=O)(=O)C(C(=O)NCCS(N)(=O)=O)c1nc2ccc(-c3ccc(C(=O)N4CC(F)(F)C4)cc3)cc2s1 (stereo not drawn) [Example B167, 2-(6-(4-((3,3-difluoro-1-azetidinyl)carbonyl)phen-yl)-1,3-benzothiazol-2-yl)-2-((2-methoxyethyl)sul-fonyl)-N-(2-sulfamoylethyl)acetamide] |
| – | – | > 8.00 | 7.22 | COCCS(=O)(=O)C(C(=O)NCCS(N)(=O)=O)c1nc2ccc(-c3ccc(C(=O)N4CCC(F)(F)C4)cc3)cc2s1 (stereo not drawn) [Example B168, 2-(6-(4-((3,3-difluoro-1-pyrrolidinyl)carbonyl)phen-yl)-1,3-benzothiazol-2-yl)-2-((2-methoxyethyl)sul-fonyl)-N-(2-sulfamoyl-ethyl)acetamide] |
| – | – | > 8.00 | 7.04 | CS(=O)(=O)C(C(=O)NCCS(N)(=O)=O)c1nc2ccc(-c3ccc(C(=O)N4CCC(F)(F)C4)cc3)cc2s1 (stereo not drawn) [Example B169, 2-(6-(4-((3,3-difluoro-1-pyrrolidinyl)carbonyl)phen-yl)-1,3-benzothiazol-2-yl)-2-(methylsulfonyl)-N-(2-sulfamoylethyl)a-cetamide] |
| – | – | > 8.00 | 7.49 | NS(=O)(=O)CCNC(=O)C(c1nc2ccc(-c3ccc(C(=O)N4CCC(F)(F)C4)cc3)cc2s1)S(=O)(=O)CCC(F)(F)F (stereo not drawn) [Example B170, 2-(6-(4-((3,3-difluoro-1-pyrrolidinyl)carbonyl)phen-yl)-1,3-benzothiazol-2-yl)-N-(2-sulfamoylethyl)-2-((3,3,3-trifluoropropyl)sul-fonyl)acetamide] |
| – | – | > 8.00 | 7.72 | CS(=O)(=O)C(C(=O)NCCS(N)(=O)=O)c1nc2ccc(-c3ccc(C(=O)N4CCC(F)(F)CC4)cc3)cc2s1 (stereo not drawn) [Example B171, 2-(6-(4-((4,4-difluoro-1-piperidinyl)carbonyl)phen-yl)-1,3-benzothiazol-2-yl)-2-(methylsulfonyl)-N-(2-sulfamoylethyl)a-cetamide] |
| > 8.00 | 7.11 | – | – | COCCN(C)C(=O)c1ccc(-c2ccc3nc(C(C(=O)NCCS(N)(=O)=O)S(C)(=O)=O)sc3c2)cc1 (stereo not drawn) [Example B172, N-(2-Methoxyethyl)-N-methyl-4-(2-(1-(methylsulfonyl)-2-oxo-2-((2-sulfamoylethyl)amino)ethyl)-1,3-benzothiazol-6-yl)benzamide] |
| > 8.00 | 6.56 | – | – | CS(=O)(=O)C(C(=O)NCCS(N)(=O)=O)c1nc2ccc(-c3ccc(C(=O)O)cc3)cc2s1 (stereo not drawn) [Example B173, 4-(2-(1-(Methylsulfonyl)-2-oxo-2-(2-sulfamoylethylamino)ethyl)benzo[d]thiazol-6-yl)benzoic acid] |
| > 8.00 | 6.40 | – | – | CC1(O)CN(C(=O)c2ccc(-c3ccc4nc(C(C(=O)NCCS(N)(=O)=O)S(C)(=O)=O)sc4c3)cc2)C1 (stereo not drawn) [Example B174, 2-(6-(4-(3-Hydroxy-3-methylazetidine-1-carbonyl)phenyl)benzo[d]thiazol-2-yl)-2-(methylsulfonyl)-N-(2-sulfamoylethyl)acetamide] |
| – | – | > 8.00 | 6.93 | COC1CN(C(=O)c2ccc(-c3ccc4nc(C(C(=O)NCCS(N)(=O)=O)S(C)(=O)=O)sc4c3)cc2)C1 (stereo not drawn) [Example B175, 2-(6-(4-((3-methoxy-1-azetidinyl)carbonyl)phen-yl)-1,3-benzothiazol-2-yl)-2-(methylsulfonyl)-N-(2-sulfamoylethyl)a-cetamide] |
| – | – | > 8.00 | 7.04 | CC1(O)CCN(C(=O)c2ccc(-c3ccc4nc(C(C(=O)NCCS(N)(=O)=O)S(C)(=O)=O)sc4c3)cc2)CC1 (stereo not drawn) [Example B176, 2-(6-(4-((4-hydroxy-4-methyl-1-piperidinyl)car-bonyl)phenyl)-1,3-benzothiazol-2-yl)-2-(methylsulfonyl)-N-(2-sulfamoylethyl)acetamide] |
| – | – | > 8.00 | 6.31 | CS(=O)(=O)C(C(=O)NCCS(N)(=O)=O)c1nc2ccc(-c3ccc(C(=O)N4CCC(O)CC4)cc3)cc2s1 (stereo not drawn) [Example B177, 2-(6-(4-((4-hydroxy-1-piperidinyl)carbonyl)phen-yl)-1,3-benzothiazol-2-yl)-2-(methylsulfonyl)-N-(2-sulfamoylethyl)a-cetamide] |
| – | – | > 8.00 | 7.04 | CS(=O)(=O)C(C(=O)NCCS(N)(=O)=O)c1nc2ccc(-c3ccc(C(=O)NC4COC4)cc3)cc2s1 (stereo not drawn) [Example B178, 4-(2-(1-(methylsulfonyl)-2-oxo-2-((2-sulfamoylethyl)a-mino)ethyl)-1,3-benzothiazol-6-yl)-N-3-oxetanylbenzamide] |

The remaining lines, values behind:

| SMILES | pIC50 (Endothelial lipase (EL); [1]) | pIC50 (hepatic lipase (HL); [2]) | pIC50 (Endothelial lipase (EL)) | pIC50 (hepatic lipase (HL)) |
| --- | --- | --- | --- | --- |
| NS(=O)(=O)CCNC(=O)C(c1nc2ccc(-c3ccc(C(=O)N4CCOCC4)cc3)cc2s1)S(=O)(=O)CCN1CCOCC1 (stereo not drawn) [Example B157, 2-{6-[4-(4-Morpholinylcarbonyl)phenyl]-1,3-benzothiazol-2-yl}-2-{[2-(4-morpholinyl)ethyl]sulfonyl}-N-(2-sulfamoylethyl)acetamide] | > 8.00 | 6.83 | – | – |
| NS(=O)(=O)CCNC(=O)C(c1nc2ccc(-c3ccc(C(=O)N4CCOCC4)cc3)cc2s1)S(=O)(=O)CCNC(=O)OCc1ccccc1 (stereo not drawn) [Example B158, benzyl (2-((1-(6-(4-(4-morpholinylcarbonyl)phen-yl)-1,3-benzothiazol-2-yl)-2-oxo-2-((2-sulfamoyl-ethyl)amino)ethyl)sul-fonyl)ethyl)carbamate] | – | – | > 8.00 | 7.51 |
| NS(=O)(=O)CCNC(=O)C(c1nc2cc(F)c(-c3ccccc3)cc2s1)S(=O)(=O)CCN1CCOCC1 (stereo not drawn) [Example B160, 2-(5-fluoro-6-phenyl-1,3-benzothiazol-2-yl)-2-((2-(4-morpholinyl)ethyl)sul-fonyl)-N-(2-sulfamoylethyl)acetamide] | – | – | > 8.00 | 7.70 |
| NCCS(=O)(=O)C(C(=O)NCCS(N)(=O)=O)c1nc2ccc(-c3ccccc3)cc2s1 (stereo not drawn) [Example B161, 2-((2-aminoethyl)sulfonyl)-2-(6-phenyl-1,3-benzothiazol-2-yl)-N-(2-sulfamoylethyl)acetamide] | – | – | > 8.00 | 7.66 |
| COCCn1cc(-c2ccc3nc(C(C(=O)NCCS(N)(=O)=O)S(C)(=O)=O)sc3c2)cn1 (stereo not drawn) [Example B162, 2-(6-(1-(2-Methoxyethyl)-1H-pyrazol-4-yl)-1,3-benzothiazol-2-yl)-2-(methylsulfonyl)-N-(2-sulfamoylethyl)acetamide] | > 8.00 | 6.00 | – | – |
| COCCn1cc(-c2ccc3nc(C(C(=O)NCCS(N)(=O)=O)S(=O)(=O)Cc4ccc(F)cc4)sc3c2)cn1 (stereo not drawn) [Example B163, 2-((4-fluorobenzyl)sul-fonyl)-2-(6-(1-(2-methoxyethyl)-1H-pyrazol-4-yl)-1,3-benzothiazol-2-yl)-N-(2-sulfamoylethyl)a-cetamide] | – | – | 7.55 | 5.59 |
| COCCn1cc(-c2ccc3nc(C(C(=O)NCCS(N)(=O)=O)S(=O)(=O)CC4CC4)sc3c2)cn1 (stereo not drawn) [Example B165, 2-((cyclopropylmethyl)sul-fonyl)-2-(6-(1-(2-methoxyethyl)-1H-pyrazol-4-yl)-1,3-benzothiazol-2-yl)-N-(2-sulfamoylethyl)a-cetamide] | – | – | 7.43 | 6.50 |
| COCCNC(=O)c1cccc(-c2ccc3nc(C(C(=O)NCCS(N)(=O)=O)S(=O)(=O)CCC(F)(F)F)sc3c2)c1 (stereo not drawn) [Example B179, N-(2-Methoxyethyl)-3-(2-(2-oxo-2-((2-sulfamoyl-ethyl)amino)-1-((3,3,3-trifluoropropyl)sulfonyl)eth-yl)benzo[d]thiazol-6-yl)benzamide] | – | – | 7.62 | 6.77 |
| CS(=O)(=O)C(C(=O)NCCS(N)(=O)=O)c1nc2ccc(-c3ccc4c(c3)CC(=O)N4)cc2s1 (stereo not drawn) [Example B180, 2-(Methylsulfonyl)-2-(6-(2-oxo-2,3-dihydro-1H-indol-5-yl)-1,3-benzothiazol-2-yl)-N-(2-sulfamoylethyl)acetamide] | > 8.00 | 6.77 | – | – |
| CS(=O)(=O)C(C(=O)NCCS(N)(=O)=O)c1nc2ccc(-c3ccc4c(c3)C(=O)NC4)cc2s1 (stereo not drawn) [Example B181, 2-(methylsulfonyl)-2-(6-(3-oxo-2,3-dihydro-1H-isoindol-5-yl)-1,3-benzothiazol-2-yl)-N-(2-sulfamoylethyl)acetamide] | – | – | > 8.00 | 6.84 |
| CS(=O)(=O)C(C(=O)NCCS(N)(=O)=O)c1nc2ccc(-c3ccc4c(c3)CNC4=O)cc2s1 (stereo not drawn) [Example B182, 2-(methylsulfonyl)-2-(6-(1-oxo-2,3-dihydro-1H-isoindol-5-yl)-1,3-benzothiazol-2-yl)-N-(2-sulfamoylethyl)acetamide] | – | – | > 8.00 | 7.44 |
| CS(=O)(=O)C(C(=O)NCCS(N)(=O)=O)c1nc2ccc(-c3ccc4c(c3)NC(=O)C4)cc2s1 (stereo not drawn) [Example B183, 2-(methylsulfonyl)-2-(6-(2-oxo-2,3-dihydro-1H-indol-6-yl)-1,3-benzothiazol-2-yl)-N-(2-sulfamoylethyl)a-cetamide] | – | – | > 8.00 | 6.86 |
| COc1ncccc1-c1ccc2nc(C(C(=O)NCCS(N)(=O)=O)S(C)(=O)=O)sc2c1 (stereo not drawn) [Example B184, 2-(6-(2-methoxy-3-pyridinyl)-1,3-benzothiazol-2-yl)-2-(methylsulfonyl)-N-(2-sulfamoylethyl)acetamide] | – | – | > 8.00 | 7.19 |
